According to patent US20090324743A1, “PULMONARY DRUG DELIVERY” (UNIVERSITY OF STRATHCLYDE, priority 2008, published 2009):

Tests used:
B16 F0 cells [1] = assay: In vivo lung cancer efficacy study, organ weights; set-up: species or system BALB/c mice; conditions: sacrificed day 14; for Lung weight: Table 9
Description: BALB/c mice (n=8/treatment) were injected intravenously on day 0 with 1-5×10^5 B16 F0 cells which form metastatic lung and liver tumours in mice (Nakurmura et al., 2002). On day 7 mice were treated either by intravenous injection of 0.2 ml of the appropriate drug formulation or PBS pH 7.4/saline (controls) or by inhalation with the appropriate drug formulation or saline using the Buxco® nebulisation system. 0.5 ml of the appropriate formulation or saline was added to the nebuliser which was attached to a Volumatic™ Spacer (Allen and Hanbury, Uxbridge, Middlesex). After 1.5 mins of nebulisation the nebuliser was switched off and the mice were exposed to the resulting aerosol for a further 5 minutes. Mice were sacrificed on day 14, body weight and the weight of the spleen, liver, lungs and kidney assessed. Lung weight was taken as an indirect measure of tumour burden. In some cases mice were dosed on days 4, 7, 9 and 11. Tumours were easily visible as black areas on the surface of the lungs and liver.

[2] = Cisplatin levels in samples from mice treated by inhalation or intravenous injection (HPLC); type: in vivo, BALB/c mice; conditions: for Mean cisplatin concentration, Kidney / Mean cisplatin concentration, Liver / Mean cisplatin concentration, Lung lavages / Mean cisplatin concentration, Lungs / Mean cisplatin concentration, Serum / Mean cisplatin concentration, Spleen: 5 minutes after dosing
Description: Mice were treated with the appropriate drug formulation either by intravenous injection of 0.2 ml of the appropriate drug formulation or PBS pH 7.4/saline (controls) or by inhalation with the appropriate drug formulation or saline (controls) using the Buxco® nebulisation system. 0.5 ml of the appropriate formulation or saline was added to the nebuliser which was attached to a Volumatic™ Spacer (Allen and Hanbury, Uxbridge, Middlesex). After 1.5 mins of nebulisation, the nebuliser was switched off, and the mice were exposed to the resulting aerosol for a further 5 minutes. […] Blood was taken by cardiac puncture and allowed to clot by storing for up to 12 hours at 4° C. Serum was separated from clotted blood sample by centrifuging at 13,000 rpm at 4° C., and transferred to a clean eppendorf tube. The lungs of the mouse were inflated by introducing two samples of 0.8 ml PBS pH 7.4 via the trachea and the resulting lung lavages were transferred to a clean eppendorf tube. Various organs were removed from the mouse and stored in 1.5 ml microfuge tubes. All the samples were stored at −20° C. until cisplatin levels within the samples could be determined using an HPLC assay.

B16-F0 cells [3] = assay: Tumour development / liver metastases, organ weight and histology on day 21; type: in vivo, BALB/c male mice
Description: (§1) A number of studies have been completed where mice were treated on day 7 (post-tumour induction) with different cisplatin formulations by inhalation and the effect on subsequent tumour burdens, based on organ weight or direct assessment of the number and size distribution of tumours, was assessed 14 days later. The lungs, liver and spleen were cut into longitudinal slices and the kidney bisected and placed in a tissue cassette. After routine processing in paraffin wax, […] sections were mounted on a glass slide, dewaxed in 100% xylene and serially rehydrated in graded ethanol to water. Sections were then stained with haematoxylin and eosin and examined by light microscopy. For each organ the number and size of tiny (unmeasurable), small, medium and large tumours was determined counted in one H&E section. The size of the largest tumour deposit was also noted. The dimensions used to characterise tumours was small (0.5 to 1.4 mm), medium (1.5 to 2.9 mm), or large (>3 mm largest dimension). The percentage of tiny tumours was calculated using the total number of tumours present in the section.

Leishmania donovani = assay: In vivo efficacy study using Leishmania donovani; set-up: species or system BALB/c mice; conditions: iv 0.2 ml (0.5 mg/ml cisplatin) on day 7 post-infection; burdens seven days later
Description: BALB/c mice were infected by intravenous injection (tail vein, no anaesthetic) with 1-2×10^7 L. donovani amastigotes (Carter et al., 1988). The day of parasite administration to the mice was designated day 0 of the experiment. On day 7 post-infection mice were treated by intravenous injection with 0.2 ml of the appropriate formulation by intravenous injection, without anaesthetic (n=4/treatment). On day 14 impression smears of the spleen and liver, and a smear of bone marrow, were made on to an individual glass microscope slide for each mouse at sacrifice. The slides were fixed in methanol for 30 secs, stained in 10% aqueous Giemsa stain (BDH, VWR International Ltd., Poole, UK) for 20 minutes, and then allowed to air dry. The number of parasites present/1000 host nuclei for the spleen, liver and bone marrow for each sample was determined at ×1000 magnification. The LDU was calculated by multiplying the number of parasites present/1000 host nuclei by the organ weight (gms) for the spleen and liver.

[4] = room temperature; cited from earlier work
[5] = after intravenous administration; cited from earlier work
B16-F0 cells [6] = assay: Tumour development / liver metastases, organ weight and histology on day 21; type: in vivo, C57BL/6 male mice; conditions: Table 12 C57BL/6 male
Description: as §1

B16 F0 cells [7] = assay: In vivo lung cancer efficacy study, organ weights; conditions: Table 8; BALB/c female mice; inhalation day 7; Free drug (1 mg/ml), Processed cisplatin-NIV (0.5 mg/ml); sacrificed day 23
[8] = Table 5, 0.5 mg/ml inhalation 6.5 mins on day 7
[9] = Table 5, 4.44 mg/kg iv (0.2 ml of 0.5 mg/ml) on day 7
[10] = Table 6 Expt 1, inhalation on days 4, 7, 9 and 11, cisplatin solution 0.5 mg/ml, processed cisplatin-NIV as prepared
[11] = Table 6 Expt 2, inhalation day 7 only, 0.1 mg/ml
[12] = Table 3, inhalation 6.5 minutes, 0.5 ml of 0.5 mg/ml
[13] = Table 4, inhalation 6.5 minutes, 0.5 ml of 0.5 mg/ml
[14] = Table 10, inhalation day 7, cisplatin solution 1 mg/ml, cisplatin-NIV 0.5 mg/ml
[15] = Table 11, inhalation day 7, cisplatin solution 1 mg/ml, cisplatin-NIV 0.1 mg/ml
[16] = Table 11, solution 1 mg/ml, NIV 0.1 mg/ml
[17] = Table 11, solution 1 mg/ml, NIV 0.1 mg/ml, large >3 mm
[18] = Table 11, solution 1 mg/ml, NIV 0.1 mg/ml, medium 1.5 to 2.9 mm
[19] = Table 11, solution 1 mg/ml, NIV 0.1 mg/ml, small 0.5 to 1.4 mm
[20] = Table 12 BALB/c male, inhalation day 7, cisplatin solution 1 mg/ml, cisplatin-NIV 0.5 mg/ml
[21] = Table 12 BALB/c male, solution 1 mg/ml, NIV 0.5 mg/ml
[22] = inhalation day 7, cisplatin solution 1 mg/ml, cisplatin-NIV 0.5 mg/ml
[23] = solution 1 mg/ml, NIV 0.5 mg/ml

[NH2][Pt]([NH2])([Cl])[Cl] [Cisplatin solution, cisplatin]
Mean organ weight, Liver (B16 F0 cells [1]; [8]): 1.47 ± 0.05 g | Mean organ weight, Lungs (B16 F0 cells [1]; [8]): 0.22 ± 0.01 g | Mean organ weight, Liver (B16 F0 cells [1]; [9]): 1.44 ± 0.16 g | Mean organ weight, Lungs (B16 F0 cells [1]; [9]): 0.42 ± 0.03 g | Mean organ weight, Liver (B16 F0 cells [1]; [10]): 1.19 ± 0.07 g | Mean organ weight, Lungs (B16 F0 cells [1]; [10]): 0.21 ± 0.01 g | Mean organ weight, Liver (B16 F0 cells [1]; [11]): 1.30 ± 0.03 g | Mean organ weight, Lungs (B16 F0 cells [1]; [11]): 0.21 ± 0.01 g | Lung weight (B16 F0 cells [1]; Female mice, inhalation day 7, 1 mg/ml): 0.19 ± 0.01 | Lung weight (B16 F0 cells [1]; Male mice, inhalation day 7, 0.5 mg/ml): 0.23 ± 0.02 | Detection of cisplatin by conventional HPLC analysis ([2]; 15 minutes after dosing): not possible to detect | Mean cisplatin concentration, Kidney [2, 12]: 6.81 ± 2.53 μg/ml/g tissue | Mean cisplatin concentration, Liver [2, 12]: 0.037 ± 0.04 μg/ml/g tissue | Mean cisplatin concentration, Lung lavages [2, 12]: 0.004 ± 0.002 µg/mL | Mean cisplatin concentration, Lungs [2, 12]: 0 ± 0 μg/ml/g tissue | Mean cisplatin concentration, Serum [2, 12]: 0.268 ± 0.1 µg/mL | Mean cisplatin concentration, Spleen [2, 12]: 0.018 ± 0.01 μg/ml/g tissue | Mean cisplatin concentration, Kidney ([2]; Table 3, iv 0.2 ml, 0.5 mg/ml): 0.951 ± 0.35 μg/ml/g tissue | Mean cisplatin concentration, Liver ([2]; Table 3, iv 0.2 ml, 0.5 mg/ml): 0.19 ± 0.13 μg/ml/g tissue | Mean cisplatin concentration, Lung lavages ([2]; Table 3, iv 0.2 ml, 0.5 mg/ml): 0.13 ± 0.07 µg/mL | Mean cisplatin concentration, Lungs ([2]; Table 3, iv 0.2 ml, 0.5 mg/ml): 0 ± 0 μg/ml/g tissue | Mean cisplatin concentration, Serum ([2]; Table 3, iv 0.2 ml, 0.5 mg/ml): 0.296 ± 0.13 µg/mL | Mean cisplatin concentration, Spleen ([2]; Table 3, iv 0.2 ml, 0.5 mg/ml): 0.065 ± 0.02 μg/ml/g tissue | Mean cisplatin concentration, Kidney [2, 13]: 0.55 ± 0.48 μg/ml/g tissue | Mean cisplatin concentration, Liver [2, 13]: 0.032 ± 0.02 μg/ml/g tissue | Mean cisplatin concentration, Lung lavages [2, 13]: 0.095 ± 0.06 µg/mL | Mean cisplatin concentration, Lungs [2, 13]: 0.032 ± 0.15 μg/ml/g tissue | Mean cisplatin concentration, Serum [2, 13]: 0 ± 0 µg/mL | Mean cisplatin concentration, Spleen [2, 13]: 0.346 ± 0.19 μg/ml/g tissue | Mean cisplatin concentration, Kidney ([2]; Table 4, iv 0.2 ml, 0.5 mg/ml): 0.55 ± 0.48 μg/ml/g tissue | Mean cisplatin concentration, Liver ([2]; Table 4, iv 0.2 ml, 0.5 mg/ml): 0.032 ± 0.02 μg/ml/g tissue | Mean cisplatin concentration, Lung lavages ([2]; Table 4, iv 0.2 ml, 0.5 mg/ml): 0.095 ± 0.06 µg/mL | Mean cisplatin concentration, Lungs ([2]; Table 4, iv 0.2 ml, 0.5 mg/ml): 0.032 ± 0.015 μg/ml/g tissue | Mean cisplatin concentration, Serum ([2]; Table 4, iv 0.2 ml, 0.5 mg/ml): 0.207 ± 0.02 µg/mL | Mean cisplatin concentration, Spleen ([2]; Table 4, iv 0.2 ml, 0.5 mg/ml): 0.346 ± 0.10 μg/ml/g tissue | % animals with visible metastases, Liver (B16-F0 cells [3]; [14]): (100%) | % animals with visible metastases, Lung (B16-F0 cells [3]; [14]): (100%) | Mean weight, Liver (B16-F0 cells [3]; [14]): 1.53 ± 0.03 g | Mean weight, Lung (B16-F0 cells [3]; [14]): 0.20 ± 0.01 g | Liver Weight (B16-F0 cells [3]; [15]): 1.65 ± 0.10 | Lungs Histology, percentage of tiny tumours (B16-F0 cells [3]; [15]): Tiny 60% | Lungs Weight (B16-F0 cells [3]; [15]): 0.22 ± 0.01 | Liver Histology, D largest tumour mass, breadth (B16-F0 cells [3]; [16]): 1.6 ± 0.43 | Liver Histology, D largest tumour mass, length (B16-F0 cells [3]; [16]): D 2.38 | Lungs Histology, D largest tumour mass, breadth (B16-F0 cells [3]; [16]): 1.19 ± 0.23 | Lungs Histology, D largest tumour mass, length (B16-F0 cells [3]; [16]): D 1.4 ± 0.37 × | Liver Histology, number of large tumours (L) (B16-F0 cells [3]; [17]): L 3.8 ± 2.15 | Lungs Histology, number of large tumours (L) (B16-F0 cells [3]; [17]): L 0.40 ± 0.24 | Liver Histology, number of medium tumours (M) (B16-F0 cells [3]; [18]): M 2.2 ± 1.56 | Lungs Histology, number of medium tumours (M) (B16-F0 cells [3]; [18]): M 1.0 ± 0.6 | Liver Histology, number of small tumours (S) (B16-F0 cells [3]; [19]): S 0.4 ± 0.24 | Lungs Histology, number of small tumours (S) (B16-F0 cells [3]; [19]): S 2.5 ± 0.43 | Liver Weight (B16-F0 cells [3]; [20]): 1.74 ± 0.05 | Lungs Weight (B16-F0 cells [3]; [20]): 0.22 ± 0.02 | Liver Tumours, D largest tumour mass, breadth (B16-F0 cells [3]; [21]): 2.3 ± 0.70 | Liver Tumours, D largest tumour mass, length (B16-F0 cells [3]; [21]): D 2.63 ± 0.71 × | Liver Tumours, number large (L) (B16-F0 cells [3]; [21]): L 2.5 ± 1.50 | Liver Tumours, number medium (M) (B16-F0 cells [3]; [21]): M 2.0 ± 1.41 | Liver Tumours, number small (S) (B16-F0 cells [3]; [21]): S 3.5 ± 1.32 | Liver Tumours, percentage of tiny tumours (B16-F0 cells [3]; [21]): Tiny 0% | Lungs Tumours, D largest tumour mass, breadth (B16-F0 cells [3]; [21]): 1.08 ± 0.15 | Lungs Tumours, D largest tumour mass, length (B16-F0 cells [3]; [21]): D 1.45 ± 0.13 × | Lungs Tumours, number large (L) (B16-F0 cells [3]; [21]): L 0 | Lungs Tumours, number medium (M) (B16-F0 cells [3]; [21]): M 0.5 ± 0.29 | Lungs Tumours, number small (S) (B16-F0 cells [3]; [21]): S 7.75 ± 1.11 | Lungs Tumours, percentage of tiny tumours (B16-F0 cells [3]; [21]): Tiny 60% | Mean number of parasites ± SE (L. donovani liver parasite burdens) (Leishmania donovani): 2142 ± 249 | Maximum aqueous solubility [4]: approximately 1 mg/ml | Share of the dose that reaches the lungs [5]: 0.1% | Liver Weight (B16-F0 cells [6]; [22]): 1.76 ± 0.16 | Lungs Weight (B16-F0 cells [6]; [22]): 0.25 ± 0.03 | Liver Tumours, D largest tumour mass, breadth (B16-F0 cells [6]; [23]): 4.44 ± 0.56 | Liver Tumours, D largest tumour mass, length (B16-F0 cells [6]; [23]): D 5.64 ± 0.88 × | Liver Tumours, number large (L) (B16-F0 cells [6]; [23]): L 6.4 ± 2.95 | Liver Tumours, number medium (M) (B16-F0 cells [6]; [23]): M 2.8 ± 1.01 | Liver Tumours, number small (S) (B16-F0 cells [6]; [23]): S 0.20 ± 0.20 | Lungs Tumours, D largest tumour mass, breadth (B16-F0 cells [6]; [23]): 0.7 ± 0.20 | Lungs Tumours, D largest tumour mass, length (B16-F0 cells [6]; [23]): D 1.35 ± 0.35 × | Lungs Tumours, number large (L) (B16-F0 cells [6]; [23]): L 0 | Lungs Tumours, number medium (M) (B16-F0 cells [6]; [23]): M 1.0 ± 0.6 | Lungs Tumours, number small (S) (B16-F0 cells [6]; [23]): S 1.2 ± 0.73 | Lungs Tumours, percentage of tiny tumours (B16-F0 cells [6]; [23]): Tiny 0% | Lung weight (B16 F0 cells [7]): 0.33 ± 0.02
